Experimental data taken from patent US12630532B2, “Indole-substituted quinolines and their combination with Plk1 inhibitors for the treatment of cancer” (UNIVERSITY OF KENTUCKY RESEARCH FOUNDATION, priority 2021, dated 2026).

Tested on: LS174T cells
Assay: Cell proliferation inhibition assay (5 days, cell counting)
Assay type: cell-based
Conditions: for inhibition at 0.062 µM / inhibition at 0.125 µM / inhibition at 0.25 µM / inhibition at 0.5 µM / inhibition at 3 µM / inhibition at 1 µM / IC50 / inhibition at 0.3 µM: Homo sapiens, LS174T; for inhibition at 0.062 µM / inhibition at 0.125 µM / inhibition at 0.25 µM / inhibition at 0.5 µM: 120 h; for inhibition at 0.062 µM: 62 nM; for inhibition at 0.125 µM: 125 nM; for inhibition at 3 µM: read-out: Inhibition % on LS174T cells Proliferation 3 uM Inhib. %; for inhibition at 1 µM: read-out: Inhibition % on LS174T cells Proliferation 1 uM Inhib. %; for IC50: dose response studies, read-out: IC50 values in cell proliferation assays; for inhibition at 0.3 µM: read-out: Inhibition % on LS174T cells Proliferation 0.3 uM Inhib. %
Method: Cell proliferation inhibition assays were done following a previous report (32). Cancer cells were seeded into 24-well plates at a density of 20,000 cells per well in 1 mL of culture medium and were cultured overnight at 37° C. Compounds and the vehicle control (DMSO) were added to the cells. After 5 days, the medium was removed, and 100 μL of trypsin was added. The cells were resuspended in phosphate-buffered saline (PBS) and were counted by Vi-CELL XR 2.03 (Beckman Coulter, Inc. USA). The ratio R of the number of viable cells in the compound treatment group to the number of viable cells in DMSO treatment group was taken as relative growth, and the percentage growth inhibition was calculated as (1−R)*100.

Row | Molecule | inhibition at 0.5 µM (500 nM, 5 days) | inhibition at 3 µM | inhibition at 1 µM | also measured
1 | Nc1nc2cc(N3CCC(c4ccccc4)CC3)ccc2cc1-c1ccccc1F [LMK-6-89] | 89 ± 1% | – | – | inhibition at 0.062 µM (5 days): 2 ± 3%; inhibition at 0.125 µM (5 days): 20 ± 0.6%; inhibition at 0.25 µM (250 nM, 5 days): 23 ± 3.8%
2 | Cn1cc(-c2cc3ccc(N4CCCCC4)cc3nc2N)c2ccccc21 [ISQ-2, 3-(1-Methyl-1H-indol-3-yl)-7-(piperidin-1-yl)quinolin-2-amine] | 97 ± 0.4% | – | – | inhibition at 0.062 µM (5 days): 8.2 ± 5.6%; inhibition at 0.125 µM (5 days): 28 ± 4.6%; inhibition at 0.25 µM (250 nM, 5 days): 55 ± 0.5%
3 | CN(C)c1ccc2cc(-c3nc4ccc(F)cc4s3)c(N)nc2c1 [LMK-5-52] | – | 97% | – | –
4 | Nc1nc2cc(N3CCOCC3)ccc2cc1-c1cc(Cl)cc(Cl)c1 [LMK-5-276] | – | 65.2% | 35% | –
5 | CN(C)c1ccc2cc(-c3csc4ccccc34)c(N)nc2c1 [VMS-7-3] | – | 96.7% | – | –
6 | Nc1nc2cc(N3CCC(CO)CC3)ccc2cc1-c1ccccc1F [LMK-6-117] | 59 ± 0.3% | – | – | inhibition at 0.062 µM (5 days): 12 ± 1.4%; inhibition at 0.125 µM (5 days): 12 ± 0.7%; inhibition at 0.25 µM (250 nM, 5 days): 32 ± 10.5%
7 | CN(C)c1ccc2cc(-c3nc4ccccc4s3)c(N)nc2c1 [VMS-7-1] | – | 95.3% | – | –
8 | COc1ccc(-c2csc(-c3cc4ccc(N(C)C)cc4nc3N)n2)cc1 [LMK-5-68] | – | 94.3% | 24.2% | –
9 | CN1CCN(c2ccc3cc(-c4cc(Cl)cc(Cl)c4)c(N)nc3c2)CC1 [LMK-5-278] | – | 87.7% | 27.9% | –
10 | CN1CCN(c2ccc3cc(-c4cn(C)c5ccccc45)c(N)nc3c2)CC1 [LMK-5-282] | – | 83.7% | 25.2% | –
11 | Cn1cc(-c2cc3ccc(N4CCC(CO)CC4)cc3nc2N)c2ccccc21 [ISQ-8, (1-(2-Amino-3-(1-methyl-1H-indol-3-yl)quinolin-7-yl)piperidin-4-yl)methanol] | 98 ± 0.6% | – | – | percentage inhibition of LS174T cell proliferation at 500 nM, compared among ISQs (FIG. 2B) (500 nM): comparable to the N,N-dimethylamino group in ISQ-1; inhibition at 0.062 µM (5 days): 20 ± 9%; inhibition at 0.125 µM (5 days): 59 ± 2.7%; inhibition at 0.25 µM (250 nM, 5 days): 97 ± 0.2%; IC50: ~0.1 µM
12 | CC(C)C1CCN(c2ccc3cc(-c4cn(C)c5ccccc45)c(N)nc3c2)CC1 [ISQ-4, 7-(4-Isopropylpiperidin-1-yl)-3-(1-methyl-1H-indol-3-yl)quinolin-2-amine] | 36 ± 0.9% | – | – | –
13 | CN(C)c1ccc2cc(-c3coc4ccccc34)c(N)nc2c1 [VMS-7-7] | – | 96.8% | 97.8% | inhibition at 0.3 µM: 87.2%
14 | Cn1cc(-c2cc3ccc(N4CCC(c5ccccc5)CC4)cc3nc2N)c2ccccc21 [ISQ-6, 3-(1-Methyl-1H-indol-3-yl)-7-(4-phenylpiperidin-1-yl)quinolin-2-amine] | 56 ± 13.1% | – | – | –
15 | Cn1cc(-c2cc3ccc(N4CCOCC4)cc3nc2N)c2ccccc21 [LMK-5-281] | – | 98.1% | 93.7% | inhibition at 0.3 µM: 30.9%
16 | Cn1cc(-c2cc3ccc(N4CCC(c5ccncc5)CC4)cc3nc2N)c2ccccc21 [ISQ-10, 3-(1-Methyl-1H-indol-3-yl)-7-(4-(pyridin-4-yl)piperidin-1-yl)quinolin-2-amine] | 99 ± 0.1% | – | – | percentage inhibition of LS174T cell proliferation at 500 nM, compared among ISQs (FIG. 2B) (500 nM): comparable to the N,N-dimethylamino group in ISQ-1; inhibition at 0.062 µM (5 days): 21 ± 5.7%; inhibition at 0.125 µM (5 days): 84 ± 2.7%; inhibition at 0.25 µM (250 nM, 5 days): 99 ± 13.1%; IC50: ~0.1 µM
17 | COCC1CCN(c2ccc3cc(-c4ccccc4F)c(N)nc3c2)CC1 [LMK-6-109] | 94 ± 0.1% | – | – | inhibition at 0.062 µM (5 days): 16 ± 8.4%; inhibition at 0.125 µM (5 days): 29 ± 0.3%; inhibition at 0.25 µM (250 nM, 5 days): 70 ± 8.8%
18 | CN(C)c1ccc2cc(-c3nc4ccc(Cl)cc4s3)c(N)nc2c1 [LMK-5-55] | – | 97.6% | – | –
19 | COc1ccc2c(c1)c(-c1cc3ccc(N(C)C)cc3nc1N)cn2C [VMS-7-29] | – | 99.3% | – | –

Row | Molecule | inhibition at 0.5 µM (500 nM, 5 days) | inhibition at 3 µM | inhibition at 1 µM | also measured
20 | CC(C)C1CCN(c2ccc3cc(-c4ccccc4F)c(N)nc3c2)CC1 [LMK-6-84] | 79 ± 5.7% | – | – | –
21 | CN(C)c1ccc2cc(-c3nc4cc(C(C)(C)C)ccc4o3)c(N)nc2c1 [LMK-5-60] | – | 91.5% | – | –
22 | Cn1cc(-c2cc3ccc(N4CCC(Cc5ccccc5)CC4)cc3nc2N)c2ccccc21 [ISQ-5, 7-(4-Benzylpiperidin-1-yl)-3-(1-methyl-1H-indol-3-yl)quinolin-2-amine] | 21 ± 3.9% | – | – | –
23 | COc1ccc2nc(-c3cc4ccc(N(C)C)cc4nc3N)sc2c1 [LMK-5-62] | – | 85.5% | – | –
24 | Nc1nc2cc(N3CCCCC3)ccc2cc1-c1cc(Cl)cc(Cl)c1 [LMK-5-279] | – | 87.6% | 46.6% | –
25 | Nc1nc2cc(N3CCOCC3)ccc2cc1-c1ccccc1F [LMK-5-284] | – | 85.6% | 20.6% | –
26 | CN(C)c1ccc2cc(-c3cc(Cl)cc(Cl)c3)c(N)nc2c1 [VMS-4-103] | – | 86.4% | – | –
27 | Nc1nc2cc(N3CCCC3)ccc2cc1-c1cc(Cl)cc(Cl)c1 [LMK-5-280] | – | 97.7% | 93.1% | inhibition at 0.3 µM: 31%
28 | COCC1CCN(c2ccc3cc(-c4cn(C)c5ccccc45)c(N)nc3c2)CC1 [ISQ-9, 7-(4-(Methoxymethyl)piperidin-1-yl)-3-(1-methyl-1H-indol-3-yl)quinolin-2-amine] | 99 ± 0.1% | – | – | percentage inhibition of LS174T cell proliferation at 500 nM, compared among ISQs (FIG. 2B) (500 nM): comparable to the N,N-dimethylamino group in ISQ-1; inhibition at 0.062 µM (5 days): 12 ± 1.9%; inhibition at 0.125 µM (5 days): 55 ± 2.3%; inhibition at 0.25 µM (250 nM, 5 days): 98%; IC50: ~0.1 µM
29 | Nc1nc2cc(N3CCCCC3)ccc2cc1-c1ccccc1F [LMK-5-286] | – | 97% | 96% | inhibition at 0.3 µM: 21.9%
30 | CN(C)c1ccc2cc(-c3nc(-c4ccccc4)cs3)c(N)nc2c1 [LMK-5-67] | – | 99.8% | 96.9% | –
31 | CN(C)c1ccc2cc(-c3ccc(Cl)c(Cl)c3)c(N)nc2c1 [VMS-4-57] | – | 74.3% | 57.8% | inhibition at 0.3 µM: 26.7%
32 | CN(C)c1ccc2cc(-c3nc(-c4ccc(Br)cc4)cs3)c(N)nc2c1 [LMK-5-66] | – | 98.9% | 45% | –
33 | CNc1ccc2cc(-c3cn(C)c4ccccc34)c(N)nc2c1 [VMS-8-67] | – | 96.9% | – | –
34 | N#CC1CCN(c2ccc3cc(-c4ccccc4F)c(N)nc3c2)CC1 [LMK-6-99] | 64 ± 3.5% | – | – | inhibition at 0.062 µM (5 days): 2 ± 0.2%; inhibition at 0.125 µM (5 days): 9 ± 2.2%; inhibition at 0.25 µM (250 nM, 5 days): 17 ± 0.1%
35 | CNc1ccc2cc(-c3cc(Cl)cc(Cl)c3)c(N)nc2c1 [VMS-8-65] | – | 97.2% | – | –
36 | Nc1nc2cc(N3CCC(Cc4ccccc4)CC3)ccc2cc1-c1ccccc1F [LMK-6-91] | 14 ± 1.2% | – | – | –
37 | 3-(1-Methyl-1H-indol-3-yl)-7-(4-methylpiperazin-1-yl)quinolin-2-amine [ISQ-3] | – | – | – | Inhibition % on LS174T cells Proliferation 250 nM (250 nM, 5 days): 27 ± 14%; Inhibition % on LS174T cells Proliferation 0.3 uM Inhib. % (0.3 uM): 73.9%; Inhibition % on LS174T cells Proliferation 500 nM (500 nM, 5 days): 89 ± 2.1%; Inhibition % on LS174T cells Proliferation 1 uM Inhib. % (1 uM): 95.5%; Inhibition % on LS174T cells Proliferation 3 uM Inhib. % (3 uM): 99.7%
